Earlier results as cited in patent US20080268043A1, “Controlled Release Compositions Comprising an Antipsychotic Agent” (ELAN PHARMA INTERNATIONAL LIMITED, priority 2005, published 2008).

Settings: within the proposed clinical dose range

mean terminal half-life: about 6 hours
Structure (SMILES): OCCOCCN1CCN(C2=Nc3ccccc3Sc3ccccc32)CC1 [quetiapine]
